As a reminder, the IC50 is the concentration needed to halve the response being measured.

Molecules are shown by their SMILES.

Sequence of recombinant human Nav1.7 (Q15858 whole entry): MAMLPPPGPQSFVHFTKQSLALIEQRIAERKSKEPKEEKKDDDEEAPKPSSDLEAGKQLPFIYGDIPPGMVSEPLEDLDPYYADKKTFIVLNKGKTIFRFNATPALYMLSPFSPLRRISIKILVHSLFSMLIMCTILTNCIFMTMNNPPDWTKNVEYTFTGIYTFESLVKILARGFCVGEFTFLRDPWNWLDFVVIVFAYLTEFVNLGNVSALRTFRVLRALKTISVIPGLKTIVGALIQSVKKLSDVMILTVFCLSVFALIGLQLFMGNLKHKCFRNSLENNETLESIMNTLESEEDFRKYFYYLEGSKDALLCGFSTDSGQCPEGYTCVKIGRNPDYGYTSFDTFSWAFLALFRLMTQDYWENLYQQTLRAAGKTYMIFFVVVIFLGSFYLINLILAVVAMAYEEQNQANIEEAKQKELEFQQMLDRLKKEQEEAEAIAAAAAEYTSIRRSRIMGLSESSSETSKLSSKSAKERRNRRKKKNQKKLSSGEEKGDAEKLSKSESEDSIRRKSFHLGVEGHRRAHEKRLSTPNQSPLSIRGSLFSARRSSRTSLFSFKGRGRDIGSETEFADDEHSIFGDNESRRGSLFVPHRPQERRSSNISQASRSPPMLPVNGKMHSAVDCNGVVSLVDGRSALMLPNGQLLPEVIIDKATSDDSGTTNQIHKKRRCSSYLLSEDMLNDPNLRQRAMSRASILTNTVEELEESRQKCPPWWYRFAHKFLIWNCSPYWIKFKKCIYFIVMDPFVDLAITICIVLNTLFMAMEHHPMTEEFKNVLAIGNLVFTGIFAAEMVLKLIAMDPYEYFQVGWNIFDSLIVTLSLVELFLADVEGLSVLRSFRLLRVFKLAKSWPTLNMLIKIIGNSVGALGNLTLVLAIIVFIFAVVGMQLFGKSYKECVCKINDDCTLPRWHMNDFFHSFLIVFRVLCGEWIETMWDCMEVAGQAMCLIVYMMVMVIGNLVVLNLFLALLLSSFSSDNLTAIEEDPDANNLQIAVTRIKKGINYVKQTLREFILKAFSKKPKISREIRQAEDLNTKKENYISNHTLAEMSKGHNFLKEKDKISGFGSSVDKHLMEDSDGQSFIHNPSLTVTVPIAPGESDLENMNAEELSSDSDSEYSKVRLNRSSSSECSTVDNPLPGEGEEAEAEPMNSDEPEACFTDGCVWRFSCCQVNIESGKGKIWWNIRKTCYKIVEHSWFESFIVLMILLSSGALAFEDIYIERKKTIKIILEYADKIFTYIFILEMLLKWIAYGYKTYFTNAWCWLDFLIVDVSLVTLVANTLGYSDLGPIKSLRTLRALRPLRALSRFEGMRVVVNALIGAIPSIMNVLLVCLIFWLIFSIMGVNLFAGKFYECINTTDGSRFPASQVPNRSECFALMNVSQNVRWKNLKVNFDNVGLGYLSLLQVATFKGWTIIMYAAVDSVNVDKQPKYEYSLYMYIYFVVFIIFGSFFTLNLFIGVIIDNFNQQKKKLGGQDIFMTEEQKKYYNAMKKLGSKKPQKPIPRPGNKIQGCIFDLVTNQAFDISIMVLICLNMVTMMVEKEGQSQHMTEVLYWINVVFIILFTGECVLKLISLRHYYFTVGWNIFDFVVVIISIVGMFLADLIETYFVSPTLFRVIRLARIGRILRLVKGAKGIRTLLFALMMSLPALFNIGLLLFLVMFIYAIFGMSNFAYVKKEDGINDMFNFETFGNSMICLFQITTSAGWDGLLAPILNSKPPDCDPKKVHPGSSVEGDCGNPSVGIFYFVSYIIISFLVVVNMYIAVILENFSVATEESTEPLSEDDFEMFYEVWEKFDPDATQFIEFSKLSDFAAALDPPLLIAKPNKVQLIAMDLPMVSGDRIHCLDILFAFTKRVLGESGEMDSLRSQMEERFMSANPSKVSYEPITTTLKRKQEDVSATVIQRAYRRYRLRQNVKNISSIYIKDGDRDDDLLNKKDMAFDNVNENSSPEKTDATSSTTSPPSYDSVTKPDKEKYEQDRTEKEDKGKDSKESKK

The first assay concerns the target recombinant human Nav1.7 (Homo sapiens (Human), UniProt Q15858). The assay can be described thus: FRET-based membrane potential assay, recombinant human sodium channel Nav1.7. Format: cell-based. The conditions noted are these: FRET-Membrane Potential Nav1.7 IC50. The method in brief:
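Channel activation used veratridine at its EC80, set by a dilution curve each experiment, together with Leiurus scorpion venom, added 3 min after compound. Membrane-potential ratio signals from FLIPR Tetra in HEPES-buffered HBSS were fitted to a four-parameter Hill equation for percent inhibition and IC50.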
Take `O=C(c1ccc2cc(Oc3ccc(C(F)(F)F)cn3)ccc2n1)N1CCN[C@H](CO)C1` [Example 276, [(3S)-3-(hydroxymethyl)piperazin-1-yl](6-{[5-(trifluoromethyl)pyridin-2-yl]oxy}quinolin-2-yl)methanone]: the IC50 amounted to 3.1 µM.

The same assay, now with this note: HEK293 cells stably expressing recombinant human Nav1.7; veratridine + scorpion venom depolarization; read-out: FRET-Membrane Potential Nav1.7 IC50.
For `O=C(c1ccc2cc(Oc3ncc(F)cn3)ccc2n1)N1CCNCC1` [Example 244, {6[(5-fluoropyrimidin-2-yl)oxy]quinolin-2-yl}(piperazin-1-yl)methanone], the IC50 is more than 20 µM. On the same count and under the same terms, the figure for `O=C(c1ccc2cc(Oc3ccc(C(F)(F)F)nn3)ccc2n1)N1CCNCC1` [Example 246, piperazin-1-yl(6-{[6-(trifluoromethyl)pyridazin-3-yl]oxy}quinolin-2-yl)methanone] is 19.8 µM; for `N[C@H]1CC[C@@H]2CN(C(=O)c3ccc4cc(Oc5ccc(C(F)(F)F)cn5)ccc4n3)C[C@@H]21` [Example 248, [(3aR,4S,6aS)-4-aminohexahydrocyclopenta[c]pyrrol-2(1H)-yl](6-{[5-(trifluoromethyl)pyridin-2-yl]oxy}quinolin-2-yl)methanone] it is 17.3 µM; for `O=C(c1ccc2cc(Oc3ccc(C(F)(F)F)cn3)ccc2n1)N1CCN(C2COC2)CC1` [Example 252, [4-(oxetan-3-yl)piperazin-1-yl](6-{[5-(trifluoromethyl)pyridin-2-yl]oxy}quinolin-2-yl)methanone] it is more than 20 µM. Same read-out and setting: the figure for `O=C(c1ccc2cc(Oc3ccc(C(F)(F)F)cn3)ccc2n1)N1CCc2ccccc2C1` [Example 253, 3,4-dihydroisoquinolin-2(1H)-yl(6-{[5-(trifluoromethyl)pyridin-2-yl]oxy}quinolin-2-yl)methanone] is more than 20 µM; for `CS(=O)(=O)C1CCN(C(=O)c2ccc3cc(Oc4ccc(C(F)(F)F)cn4)ccc3n2)CC1` [Example 254, [4-(methylsulfonyl)piperidin-1-yl](6-{[5-(trifluoromethyl)pyridin-2-yl]oxy}quinolin-2-yl)methanone] it is 13.8 µM. As to `CC1(O)CCN(C(=O)c2ccc3cc(Oc4ccc(C(F)(F)F)cn4)ccc3n2)CC1` [Example 255, (4-hydroxy-4-methylpiperidin-1-yl)(6-{[5-(trifluoromethyl)pyridin-2-yl]oxy}quinolin-2-yl)methanone], the IC50 was found to be 12.1 µM.

For the molecule `O=C(c1ccc2cc(Oc3ccc(C(F)(F)F)cn3)ccc2n1)N1C[C@@H]2C[C@@H](CO)[C@H]1C2` [Example 257, [(1R,4R,6R)-6-(hydroxymethyl)-2-azabicyclo[2.2.1]hept-2-yl](6-{[5-(trifluoromethyl)pyridin-2-yl]oxy}quinolin-2-yl)methanone], the IC50 was 10.6 µM. On the same count and under the same terms, the figure for `O=C(c1ccc2cc(Oc3ccc(C(F)(F)F)cn3)ccc2n1)N1C[C@@H]2C[C@H](CO)[C@H]1C2` [Example 258, [(1R,4R,6S)-6-(hydroxymethyl)-2-azabicyclo[2.2.1]hept-2-yl](6-{[5-(trifluoromethyl)pyridin-2-yl]oxy}quinolin-2-yl)methanone] is 6.13 µM; for `CN1CCCN(C(=O)c2ccc3cc(Oc4ccc(C(F)(F)F)cn4)ccc3n2)CC1` [Example 260, (4-methyl-1,4-diazepan-1-yl)(6-{[5-(trifluoromethyl)pyridin-2-yl]oxy}quinolin-2-yl)methanone] it is 1.04 µM; for `O=C(c1ccc2cc(Oc3ccc(C(F)(F)F)cn3)ccc2n1)N1CCN(C2CC2)CC1` [Example 261, (4-cyclopropylpiperazin-1-yl)(6-{[5-(trifluoromethyl)pyridin-2-yl]oxy}quinolin-2-yl)methanone] it is 6.31 µM. The same measure, in the same setting: the figure for `O=C(c1ccc2cc(Oc3ccc(C(F)(F)F)cn3)ccc2n1)N1CCN(c2ccccc2)CC1` [Example 262, (4-phenylpiperazin-1-yl)(6-{[5-(trifluoromethyl)pyridin-2-yl]oxy}quinolin-2-yl)methanone] is 2.09 µM; for `CC(C)[C@@H]1CN(C(=O)c2ccc3cc(Oc4ccc(C(F)(F)F)cn4)ccc3n2)CCN1` [Example 263, [(3R)-3-isopropylpiperazin-1-yl](6-{[5-(trifluoromethyl)pyridin-2-yl]oxy}quinolin-2-yl)methanone] it is 0.402 µM. With `O=C(NC1CCNCC1)c1ccc2cc(Oc3ccc(C(F)(F)F)cn3)ccc2n1` [Example 264, N-(piperidin-4-yl)-6-{[5-(trifluoromethyl)pyridin-2-yl]oxy}quinoline-2-carboxamide], the IC50 is 3.21 µM. With `O=C(c1ccc2cc(Oc3ccc(C(F)(F)F)cn3)ccc2n1)N1CCC(CO)CC1` [Example 265, [4-(hydroxymethyl)piperidin-1-yl](6-{[5-(trifluoromethyl)pyridin-2-yl]oxy}quinolin-2-yl)methanone], the IC50 came to 3.45 µM.

`O=C(c1ccc2cc(Oc3ccc(C(F)(F)F)cn3)ccc2n1)N1CCC(CO)C1` (stereo not shown) [Example 266, [3-(hydroxymethyl)pyrrolidin-1-yl](6-{[5-(trifluoromethyl)pyridin-2-yl]oxy}quinolin-2-yl)methanone]: the IC50 came out at 5.76 µM. Same read-out and setting: the figure for `O=C(c1ccc2cc(Oc3ccc(C(F)(F)F)cn3)ccc2n1)N1CCN(c2cnccn2)CC1` [Example 268, [4-(pyrazin-2-yl)piperazin-1-yl](6-{[5-(trifluoromethyl)pyridin-2-yl]oxy}quinolin-2-yl)methanone] is 2.98 µM. On to `O=C(c1ccc2cc(Oc3ccc(C(F)(F)F)cn3)ccc2n1)N1CCN(c2cccnc2)CC1` [Example 269, [4-(pyridin-3-yl)piperazin-1-yl](6-{[5-(trifluoromethyl)pyridin-2-yl]oxy}quinolin-2-yl)methanone], for which the IC50 amounted to 3.07 µM. On to `O=C(c1ccc2cc(Oc3ccc(C(F)(F)F)cn3)ccc2n1)N1CCN(c2ncccn2)CC1` [Example 270, [4-(pyrimidin-2-yl)piperazin-1-yl](6-{[5-(trifluoromethyl)pyridin-2-yl]oxy}quinolin-2-yl)methanone], for which the IC50 is 3.08 µM. Turning to `O=C(c1ccc2cc(Oc3ccc(C(F)(F)F)cn3)ccc2n1)N1CCN(c2ccc(Cl)cn2)CC1` [Example 272, [4-(5-chloropyridin-2-yl)piperazin-1-yl](6-{[5-(trifluoromethyl)pyridin-2-yl]oxy}quinolin-2-yl)methanone], the IC50 is 2.99 µM. Turning to `CC[C@H]1CN(C(=O)c2ccc3cc(Oc4ccc(C(F)(F)F)cn4)ccc3n2)CCN1` [Example 273, [(3S)-3-ethylpiperazin-1-yl](6-{[5-(trifluoromethyl)pyridin-2-yl]oxy}quinolin-2-yl)methanone], the IC50 stood at 0.488 µM. Still for that read-out and setting: the figure for `CC(C)[C@H]1CN(C(=O)c2ccc3cc(Oc4ccc(C(F)(F)F)cn4)ccc3n2)CCN1` [Example 274, [(3S)-3-isopropylpiperazin-1-yl](6-{[5-(trifluoromethyl)pyridin-2-yl]oxy}quinolin-2-yl)methanone] is 0.304 µM. On the same count and under the same terms, the figure for `CC(O)c1ccc(Oc2ccc3nc(C(=O)N4CCNCC4)ccc3c2)cc1` (stereo not shown) [Example 275, {6-[4-(1-hydroxyethyl)phenoxy]quinolin-2-yl}(piperazin-1-yl)methanone] is 11.4 µM. As for `CC(C)OC(=O)N1CCN(C(=O)c2ccc3cc(Oc4ccc(C(F)(F)F)cn4)ccc3n2)CC1` [Example 277, isopropyl 4-[(6-{[5-(trifluoromethyl)pyridin-2-yl]oxy}quinolin-2-yl)carbonyl]piperazine-1-carboxylate], the IC50 is 3.09 µM.

Staying with this assay, now noted: read-out: FRET-Membrane Potential Nav1.7 IC50.
In the case of `O=C(c1ccc2cc(Oc3cnc(C(F)(F)F)cn3)ccc2n1)N1CCNCC1` [Example 245, piperazin-1-yl(6-{[5-(trifluoromethyl)pyrazin-2-yl]oxy}quinolin-2-yl)methanone], the IC50 is 4.63 µM.

Consider `O=C(c1ccc2cc(Oc3ncc(C(F)(F)F)cn3)ccc2n1)N1CCNCC1` [Example 247, piperazin-1-yl(6-{[5-(trifluoromethyl)pyrimidin-2-yl]oxy}quinolin-2-yl)methanone], for which the half-maximal inhibitory concentration (IC50) was determined as 13.3 µM. As to `O=C(c1ccc2cc(Oc3ccc(C(F)(F)F)cc3)ccc2n1)N1CCNCC1` [Example 249, piperazin-1-yl {6-[4-(trifluoromethyl)phenoxy]quinolin-2-yl}methanone], the IC50 amounted to 0.902 µM.

`O=C(c1ccc2cc(Oc3ncc(C(F)(F)F)cc3F)ccc2n1)N1CCNCC1` [Example 250, (6-{[3-fluoro-5-(trifluoromethyl)pyridin-2-yl]oxy}quinolin-2-yl)(piperazin-1-yl)methanone]: the IC50 came out at 1.39 µM. Same read-out and setting: the figure for `O=C(c1ccc2cc(Oc3ccc(C(F)(F)F)cn3)ccc2n1)N1CCC(O)CC1` [Example 256, (4-hydroxypiperidin-1-yl)(6-{[5-(trifluoromethyl)pyridin-2-yl]oxy}quinolin-2-yl)methanone] is 16.4 µM. Regarding `O=C(N[C@@H]1CC[C@@H]2CN(Cc3ccccc3)C[C@@H]21)c1ccc2cc(Oc3ccc(C(F)(F)F)cn3)ccc2n1` [Example 259, N-[(3aR,4R,6aS)-2-benzyloctahydrocyclopenta[c]pyrrol-4-yl]-6-{[5-(trifluoromethyl)pyridin-2-yl]oxy}quinoline-2-carboxamide], the IC50 amounted to 2.06 µM. As to `O=C(NC1CC2CCC(C1)N2)c1ccc2cc(Oc3ccc(C(F)(F)F)cn3)ccc2n1` (stereo not shown) [Example 267, N-(8-azabicyclo[3.2.1]oct-3-yl)-6-{[5-(trifluoromethyl)pyridin-2-yl]oxy}quinoline-2-carboxamide], the half-maximal inhibitory concentration (IC50) stood at 10.2 µM. Still for that read-out and setting: the figure for `O=C(c1ccc2cc(Oc3ccc(C(F)(F)F)cn3)ccc2n1)N1CCN(c2cccnn2)CC1` [Example 271, [4-(pyridazin-3-yl)piperazin-1-yl](6-{[5-(trifluoromethyl)pyridin-2-yl]oxy}quinolin-2-yl)methanone] is 11.2 µM; for `O=C(c1ccc2cc(Oc3ccc(C(F)(F)F)cn3)ccc2n1)N1C[C@@H]2CN[C@@H]2C1` [Example 278, (1S,5S)-3,6-diazabicyclo[3.2.0]hept-3-yl(6-{[5-(trifluoromethyl)pyridin-2-yl]oxy}quinolin-2-yl)methanone] it is 3.72 µM.
